Assay results reported in US20070092444A1, “Inhibition of inward sodium currents in cancer” (priority 2003, published 2007).

How the values were obtained:
[1] = system: U87-MG cells; assay: Cell growth in culture; format: cell-based, human; details: 80 nM PcTX1
[2] = system: U251-MG brain tumors; assay: Intracranial U251-MG xenograft in SCID mice; format: in vivo
Description: After sacrifice, brain tissue was removed, embedded with paraffin and sectioned (10 μm thick). Sections were stained using hemotoxylin and eosin. Magnifications are 1×, 4× and 20× as indicated.
In these studies, 10^6 U251-MG cells were injected directly into the right hemisphere of thirty SCID mice (FIGS. 27A-C). […] On sacrifice of the animals, the brain of each mouse was sectioned and stained with hemotoxylin and eosin. Do to the nature of the study, no difference in survival between the three groups was noted.

[3] = system: D54-MG glioma cells; assay: Transwell Migration Assay, D54-MG cells; format: cell-based, human; details: 3 h, vitronectin
Description: 5-8 μm polycarbonate Transwell filters were coated on the lower surface with or vitronectin ([…] in PBS). […] of D54MG cells (400,000 cells/ml were added to the upper chamber), in the presence or absence of benzamil, and migration was allowed to proceed for 3 hours. Migration was determined according to standard procedures (120). N-amidino-3,5-diamino-pyrazinecarboxamide was used as a control.
To begin to investigate the role of the inward Na^+ conductance in the invasive behavior of tumor cells, a Transwell Migration Assay was used to assess cell chemotaxis and invasiveness (FIG. 17). D54-MG cells were plated on the upper side of a filter insert perforated with 5-8 μm holes, and induced to migrate through these pores toward the extracellular matrix protein vitronectin (coated on the underside of the filter). Benzamil, at 10, 20, 50, or 100 μM, was added to both chambers at time 0. After a 3 h migration time, cells were fixed, stained with crystal violet, and counted. BSA-coated filter inserts were used as negative controls. […]
Approximately 10,000 cells were added to the upper side of a filter insert perforated with 5-8 μm holes, and induced to migrate through these pores toward the extracellular matrix protein vitronectin (coated on the underside of the filter). […] Cells were counted on an inverted microscope, averaging five fields per Transwell chamber. […]

[4] = system: U87-MG cells; assay: Transwell Migration Assay, U87-MG cells; format: cell-based, human; details: 3 h, vitronectin
[5] = system: primary GBM cultures; assay: Transwell Migration Assay, primary GBM cultures; format: cell-based, human; details: 3 h, vitronectin
Description: Approximately 10,000 cells were added to the upper side of a filter insert perforated with 5-8 μm holes, and induced to migrate through these pores toward the extracellular matrix protein vitronectin (coated on the underside of the filter). PcTX1 or control scrambled PcTX1 peptide was added to each compartment at the same time as the cells. BSA-coated filter inserts were used as negative controls. After 3 h, cells were fixed with 4% paraformaldehyde, and subsequently stained with crystal violet. Cells were counted on an inverted microscope, averaging five fields per Transwell chamber. Four-to-ten chambers were used under each condition.

[6] = system: U87-MG cells; assay: Regulatory volume increase after osmotic shrinkage, Coulter counter; format: cell-based, human; details: 80 nM PcTX1; 450 mOsM/kg
Description: U87-MG cells were mechanically dispersed, washed, and resuspended in PBS. At t=2-3 min, the osmolality of the bathing medium was increased to 450 mOsM/kg by the addition of NaCl from a 3M stock solution.

[7] = system: Na^+/H^+ exchange; details: glial / glioma cells; references 72, 73; cited from earlier work
[8] = molecular target: T1, ASIC1 (Homo sapiens, UniProt P78348); assay: Wild-type ASIC1 in planar lipid bilayers, single channel recording; format: biochemical; details: amiloride; bilayers
T1 sequence (P78348 1-528): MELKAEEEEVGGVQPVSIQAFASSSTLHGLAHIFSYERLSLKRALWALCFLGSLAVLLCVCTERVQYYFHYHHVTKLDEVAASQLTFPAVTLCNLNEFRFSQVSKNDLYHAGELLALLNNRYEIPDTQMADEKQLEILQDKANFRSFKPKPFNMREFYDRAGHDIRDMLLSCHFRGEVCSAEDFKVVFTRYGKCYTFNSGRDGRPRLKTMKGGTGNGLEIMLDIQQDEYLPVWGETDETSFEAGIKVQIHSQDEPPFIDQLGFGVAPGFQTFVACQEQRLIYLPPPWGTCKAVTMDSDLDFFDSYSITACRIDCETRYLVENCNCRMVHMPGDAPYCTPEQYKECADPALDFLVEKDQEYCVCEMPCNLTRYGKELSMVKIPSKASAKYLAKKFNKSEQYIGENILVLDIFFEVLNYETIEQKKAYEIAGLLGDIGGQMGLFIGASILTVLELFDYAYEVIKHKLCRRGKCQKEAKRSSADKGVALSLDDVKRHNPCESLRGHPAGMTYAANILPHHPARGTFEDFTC
Description: An expanded time scale is shown below each trace.
Wild-type ASIC1 incorporated into planar lipid bilayers at neutral pH or at acidic extracellular pH was also examined.
Membrane potential was held at −60 mV, and the pHo was step decreased to 4.0 for 10 s, and then returned to 7.4 for 30 s before repeating the sequence.
Control single channel were record for ASIC1 containing channels in bilayers bathed with symmetrical 100 mM NaCl, 10 mM MOPS, pH 6.2. Holding potential was +100 mV referred to the virtually grounded trans chamber. For illustration purposes, data shown were digitally filtered at 100 Hz using pCLAMP software (Axon Instruments) subsequent to acquisition of the analog signal filtered at 300 Hz with an 8-pole Bessel filter before acquisition at 1 ms per point. An expanded time scale is shown below each trace (FIG. 21).
Representative dwell-time histograms were constructed following the events analyses performed using pCLAMP software (Axon Instruments) on single channel recordings of 10 min in duration filtered at 300 Hz with an 8-pole Bessel filter before acquisition at 1 ms per point using pCLAMP software and hardware. The event detection thresholds were 50% in amplitude of transition between closed and open states, and 3 ms in duration. Closed and open time constants shown were determined by fitting the closed and open time histograms to the probability density function (Sigworth and Sine, 1987), and using the Simplex least square routine of pSTAT. Number of bins per decade in all histograms was 16.

Row | Molecule | growth of cells in culture [1] | survival ([2]; between the three groups) | tumor foci within the injected hemisphere ([2]; injection once a week for three weeks) | tumor margins ([2]; injection once a week for three weeks, 20× the in vitro inhibitory dose, versus saline or scrambled peptide) | diminished ability to migrate through the filter [3] [%] | diminished ability to migrate through the filter [4] [%] | diminished ability to migrate through the filter [5] [%] | volume recovery after shrinkage [6] | inhibition of Na^+/H^+ exchange [7] | kind of channel block [8]
1 | Psalmotoxin 1 [PcTX1] | significantly inhibited | no difference | one | more clearly delineated | > 90 | > 90 | > 90 | effectively prevented |  | 
2 | N=C(N)NC(=O)c1nc(Cl)c(N)nc1N [amiloride] |  |  |  |  |  |  |  |  | can inhibit | flickery-block
